Data published in patent US20250339462A1, “CANCER TREATMENT USING ULTRA-HIGH CONCENTRATION GASEOUS NITRIC OXIDE AND A CHECKPOINT INHIBITOR” (Beyond Air, Inc., priority 2022, published 2025).

Test system: PD-L1 expression on CT26 PI negative cells
Test: In vitro UNO exposure of CT26 cells, PD-L1 expression by flow cytometry
Type: cell-based, mouse
Description: Preparation of cells—Mouse colon carcinoma CT26.WT cells (ATCC number: CRL-2638) were grown to a 70-80% confluency and harvested using trypsin. Following, the cells were centrifuged at 1,200 revolutions per minute (rpm)—241 G for 8 minutes, then the pellet was re-suspended in 1 ml of cell media (RPMI—1640 supplemented with 10% FBS and 1% Pen-Strep). The cells were counted using an automated cell counter and a total of 2×10^6 cells were seeded into each […] containing 9 ml cell media. The plates were then placed for 24 hours in an incubator at 37° C., 5% CO2.
UNO treatment—Following 24 hours of incubation, cell media was removed, and the plate was placed in an acrylic box stationed within an operating chemical fume hood. Prior to the initiation of treatment, the box was exposed to UV for 1 hour to reduce the chances of contamination. The box was closed and sealed with parafilm. A PVC delivery line was placed within a designated hole on the top of the box and lowered until approximately 5 cm within the box. The flowmeter was set to 1 LPM to expose the cells for the durations and concentrations described in Table 3 (control cells were untreated).
Following treatment, 9 ml of cell media were added to each well and the plate was placed for 24 hours in an incubator at 37° C., 5% CO2.
Flow cytometry—Cell media was removed to a 50 ml centrifuge tube. […]

Compound: [N]=O [UNO, nitric oxide]
- PI negative cells expressing PD-L1 (25,000-100,000 ppm for 10 s, 30 s or 1 min, depending on dosage and time of exposure): 70-90%
- Mean fluorescent intensity (MFI) of PD-L1 expression (UNO dosage and time dependent manner): increased
